This assay concerns the target T1, BmTy (tyrosinase from Bacillus megaterium) (Priestia megaterium, UniProt B2ZB02).
T1 construct: 6x His-tagged, expressed in E. coli BL21(DE3), Ni-NTA purified
T1 sequence (B2ZB02 1-297): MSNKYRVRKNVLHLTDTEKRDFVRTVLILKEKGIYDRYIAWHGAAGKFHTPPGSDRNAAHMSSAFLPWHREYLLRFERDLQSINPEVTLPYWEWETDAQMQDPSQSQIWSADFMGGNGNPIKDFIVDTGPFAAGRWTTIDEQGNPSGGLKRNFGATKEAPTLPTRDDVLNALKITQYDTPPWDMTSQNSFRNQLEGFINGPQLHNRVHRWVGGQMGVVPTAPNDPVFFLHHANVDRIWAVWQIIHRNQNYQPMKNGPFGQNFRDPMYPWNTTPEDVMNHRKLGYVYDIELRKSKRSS
Description: dopachrome assay at […] nm, initial rates, L-tyrosine as substrate (monophenolase activity). It is filed as biochemical. Conditions: read-out: KI1.

Results on 1 compound are retold here after PMC8466947, “Polyphenol-Hydroxylating Tyrosinase Activity under Acidic pH Enables Efficient Synthesis of Plant Catechols and Gallols” (Microorganisms, 2021).

For the compound `O=c1c(O)c(-c2ccc(O)c(O)c2)oc2cc(O)cc(O)c12` [QUE, quercetin], the Ki was determined as 33.9 µM.
